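All cell lines were grown in 96-well plates and treated with compound for 48 hours. GI50 is the concentration that inhibits growth by half.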 The source made the active and inactive calls. Cut-off read from the data, not from the text of the source: active = GI50 up to about 1.1 µM and inactive = higher.
Assays:
Experiment in all cases: NCI anticancer screen, dose series, 48 h
BT-549 = tested on: BT-549
HOP-18 = tested on: HOP-18
XF498 = tested on: XF498
SNB-78 = tested on: SNB-78
DMS-273 = tested on: DMS-273
DLD-1 = tested on: DLD-1
M19-MEL = tested on: M19-MEL
LXFL 529 = tested on: LXFL 529
RXF 631 = tested on: RXF 631

SMILES: O=C(O)/C(=C\c1ccncc1)c1cccc2ccccc12
- GI50 (BT-549): > 100 µM (inactive)

SMILES: CN(C)/N=N/c1ccc([N+](=O)[O-])cc1C(N)=O
- GI50 (HOP-18): > 100 µM (inactive)
- GI50 (XF498): > 100 µM (inactive)
- GI50 (SNB-78): > 100 µM (inactive)
- GI50 (DMS-273): > 100 µM (inactive)
- GI50 (DLD-1): > 100 µM (inactive)
- GI50 (M19-MEL): > 100 µM (inactive)

SMILES: CC(C)(C)C(=O)OCC1OC(N=[N+]=[N-])C(OC(=O)C(C)(C)C)C(OC(=O)C(C)(C)C)C1OC(=O)C(C)(C)C (stereo not drawn)
- GI50 (LXFL 529): > 100 µM (inactive)
- GI50 (XF498): > 100 µM (inactive)
- GI50 (SNB-78): > 100 µM (inactive)
- GI50 (DMS-273): > 100 µM (inactive)
- GI50 (DLD-1): > 100 µM (inactive)

SMILES: O=C(Nc1cccc(C(=O)NCCCO)c1)/C(=C/c1ccccc1)NC(=O)c1ccccc1
- GI50 (BT-549): > 100 µM (inactive)

SMILES: CN(NC(=O)c1cccs1)C1=NCCCN1
- GI50 (BT-549): > 100 µM (inactive)

SMILES: C/C(=N/NS(=O)(=O)c1ccc([N+](=O)[O-])cc1)c1cccc[n+]1[O-]
- GI50 (HOP-18): > 100 µM (inactive)
- GI50 (LXFL 529): > 100 µM (inactive)
- GI50 (XF498): > 100 µM (inactive)
- GI50 (SNB-78): > 100 µM (inactive)
- GI50 (DMS-273): > 100 µM (inactive)
- GI50 (DLD-1): > 100 µM (inactive)
- GI50 (M19-MEL): > 100 µM (inactive)

SMILES: Nc1nnc(CCC(=O)Nc2cc(Cl)ccc2Cl)n1N
- GI50 (HOP-18): > 100 µM (inactive)
- GI50 (RXF 631): > 100 µM (inactive)
- GI50 (LXFL 529): > 100 µM (inactive)
- GI50 (XF498): > 100 µM (inactive)
- GI50 (SNB-78): > 100 µM (inactive)
- GI50 (DMS-273): > 100 µM (inactive)
- GI50 (DLD-1): > 100 µM (inactive)
- GI50 (M19-MEL): > 100 µM (inactive)

SMILES: CC(C)(Br)C1(O)CCCN1C(=O)c1ccccc1 (stereo not drawn)
- GI50 (HOP-18): > 100 µM (inactive)
- GI50 (RXF 631): > 100 µM (inactive)
- GI50 (LXFL 529): > 100 µM (inactive)
- GI50 (SNB-78): > 100 µM (inactive)
- GI50 (DMS-273): > 100 µM (inactive)
- GI50 (DLD-1): > 100 µM (inactive)
- GI50 (M19-MEL): > 100 µM (inactive)

SMILES: COc1cccc(C2C(C(=O)O)=C(CO)Oc3cc4c(cc32)OCO4)c1 (stereo not drawn)
- GI50 (HOP-18): > 100 µM (inactive)
- GI50 (LXFL 529): > 100 µM (inactive)
- GI50 (XF498): 36.5 µM (inactive)
- GI50 (SNB-78): > 100 µM (inactive)
- GI50 (DLD-1): > 100 µM (inactive)
- GI50 (M19-MEL): > 100 µM (inactive)

SMILES: Brc1cccc(Nc2ncnc3sc4c(c23)CCC(Nc2cccc(Br)c2)C4)c1 (stereo not drawn)
- GI50 (BT-549): > 100 µM (inactive)

SMILES: C=CS(=O)(=O)CCN1CC1
- GI50 (BT-549): > 10 µM (inactive)

SMILES: C=COCCCOc1ccccc1
- GI50 (HOP-18): 1.53 µM (inactive)
- GI50 (LXFL 529): > 100 µM (inactive)
- GI50 (XF498): > 100 µM (inactive)
- GI50 (DMS-273): > 100 µM (inactive)
- GI50 (DLD-1): > 100 µM (inactive)
- GI50 (M19-MEL): > 100 µM (inactive)

SMILES: CCOc1c(/N=N/c2ccccc2Cl)c(-c2ccccc2)nn1C(=S)S
- GI50 (BT-549): 35.9 µM (inactive)

SMILES: CCOC(=O)C(=O)Nc1cccc(C)c1C
- GI50 (HOP-18): > 100 µM (inactive)
- GI50 (LXFL 529): > 100 µM (inactive)
- GI50 (XF498): > 100 µM (inactive)
- GI50 (SNB-78): > 100 µM (inactive)
- GI50 (DMS-273): > 100 µM (inactive)
- GI50 (DLD-1): > 100 µM (inactive)
- GI50 (M19-MEL): > 100 µM (inactive)

SMILES: CCCCNC1=C2C(=O)NN=C2CO1
- GI50 (RXF 631): > 100 µM (inactive)
- GI50 (LXFL 529): 39.8 µM (inactive)
- GI50 (XF498): > 100 µM (inactive)
- GI50 (SNB-78): > 100 µM (inactive)
- GI50 (DMS-273): > 100 µM (inactive)
- GI50 (DLD-1): > 100 µM (inactive)
- GI50 (M19-MEL): > 100 µM (inactive)

SMILES: COc1ccc(CC2CCc3nc(N)nc(N)c3C2)cc1OC (stereo not drawn)
- GI50 (BT-549): 0.246 µM (active)

SMILES: COc1cccc(/C=C/C(=O)N2CC(CCl)c3c2cc(N)c2ccccc32)c1 (stereo not drawn)
- GI50 (BT-549): 0.0122 µM (active)

SMILES: C=C1C(=O)O[C@@H]2[C@H]3O[C@]3(C)CCC=C(C)CC[C@@H]12
- GI50 (HOP-18): 14.9 µM (inactive)
- GI50 (XF498): 16.9 µM (inactive)
- GI50 (SNB-78): 18.2 µM (inactive)
- GI50 (DMS-273): 24.6 µM (inactive)
- GI50 (DLD-1): 12.5 µM (inactive)
- GI50 (M19-MEL): 14.3 µM (inactive)
